Source: US10385097B2, “Ether compounds for treatment of medical disorders” (Achillion Pharmaceuticals, Inc., priority 2015, dated 2019)
pIC50: −log10 of the molar value.

target: T1, Human Factor D (Homo sapiens, UniProt P00746); assay: Human Factor D Assay; format: biochemical; settings: not given
T1 construct: purified from human serum; purchased Complement Technology, Inc; host or cells: human serum (natural protein, not recombinant)
Method: Example 8. Human Factor D Assay
Human Factor D (purified from human serum, Complement Technology, Inc.) at 80 nM final concentration is incubated with test compound at various concentrations for 5 minutes at room temperature in 50 mM Tris, 1M NaCl, pH 7.5. A synthetic substrate Z-L-Lys-SBzl and DTNB (Ellman's reagent) are added to final concentrations of 100 μM each. Absorbance at 405 nm (A405) is recorded at 30 second intervals for 30 minutes using a microplate spectrophotometer. IC50 values are calculated by nonlinear regression of complement Factor D reaction rates as a function of test compound concentration.

T1 sequence (P00746 26-253): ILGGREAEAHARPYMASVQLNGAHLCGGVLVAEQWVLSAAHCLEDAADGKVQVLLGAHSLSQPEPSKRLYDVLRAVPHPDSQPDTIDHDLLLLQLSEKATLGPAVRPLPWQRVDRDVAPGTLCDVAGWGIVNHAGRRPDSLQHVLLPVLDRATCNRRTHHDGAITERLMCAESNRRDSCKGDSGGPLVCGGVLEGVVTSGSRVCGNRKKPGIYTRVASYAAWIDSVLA

Question: `CC(=O)c1cn(CC(=O)N2C[C@H](F)C[C@H]2C(=O)NCc2cccc(Cl)c2F)c2cc(OCCC3CC3)ccc12` [Cmp 5] was tested. Which pIC50 did it give?
Answer: Its pIC50 is greater than 6.00.

Question: How did the pIC50 turn out when `CC(=O)c1cn(CC(=O)N2C[C@H](F)C[C@H]2C(=O)Nc2cccc(Br)n2)c2ccc(OCCSCC3(C)COC3)cc12` [Cmp 5] was run?
Answer: Its pIC50 is greater than 6.00.

Question: With `CC(=O)c1cn(CC(=O)N2C[C@H](F)C[C@H]2C(=O)NCc2cccc(Cl)c2F)c2cc(OCP(=O)(O)OCOC(=O)OC(C)C)ccc12` [Compound 13, (((((3-Acetyl-1-(2-((2S,4R)-2-((3-chloro-2-fluorobenzyl)carbamoyl)-4-fluoropyrrolidin-1-yl)-2-oxoethyl)-1H-indol-6-yl)oxy)methyl)(hydroxy)phosphoryl)oxy)methyl isopropyl carbonate] as the compound, how does the pIC50 read?
Answer: Its pIC50 is greater than 6.00.

Question: With `CC(=O)c1cn(CC(=O)N2C[C@H](F)C[C@H]2C(=O)NCc2cccc(Cl)c2F)c2cc(OCS(=O)(=O)NC(C)(C)C)ccc12` [Compound 15, (2S,4R)-1-(2-(3-Acetyl-6-((N-(tert-butyl)sulfamoyl)methoxy)-1H-indol-1-yl)acetyl)-N-(3-chloro-2-fluorobenzyl)-4-fluoropyrrolidine-2-carboxamide] as the compound, how does the pIC50 read?
Answer: The pIC50 was greater than 6.00.

Question: How did the pIC50 turn out when `CCP(=O)(O)COc1ccc2c(C(C)=O)cn(CC(=O)N3C[C@H](F)C[C@H]3C(=O)NCc3cccc(Cl)c3F)c2c1` [Compound 16, (((3-Acetyl-1-(2-((2S,4R)-2-((3-chloro-2-fluorobenzyl)carbamoyl)-4-fluoropyrrolidin-1-yl)-2-oxoethyl)-1H-indol-6-yl)oxy)methyl)(ethyl)phosphinic Acid] was run?
Answer: The pIC50 was greater than 6.00.

Question: `CC(=O)c1cn(CC(=O)N2C[C@H](F)C[C@H]2C(=O)NCc2cccc(Cl)c2F)c2cc(OCP(=O)(OCOC(=O)C(C)(C)C)OCOC(=O)C(C)(C)C)ccc12` [Compound 21, (((((3-Acetyl-1-(2-((2S,4R)-2-((3-chloro-2-fluorobenzyl)carbamoyl)-4-fluoropyrrolidin-1-yl)-2-oxoethyl)-1H-indol-6-yl)oxy)methyl)phosphoryl)bis(oxy))bis(methylene) bis(2,2-dimethylpropanoate)] was tested. Which pIC50 did it give?
Answer: Its pIC50 is greater than 6.00.

Question: `CC(=O)c1cn(CC(=O)N2C[C@H](F)C[C@H]2C(=O)NCc2cccc(Cl)c2F)c2cc(OCP(=O)(N[C@@H](C)C(=O)OC(C)C)N[C@@H](C)C(=O)OC(C)C)ccc12` [Compound 24, (2S,2′S)-isopropyl-2,2′-(((3-acetyl-1-(2-((2S,4R)-2-(3-chloro-2-fluorobenzylcarbamoyl)-4-fluoropyrrolidin-1-yl)-2-oxoethyl)-1H-indol-6-yloxy)methyl)phosphoryl)bis(azanediyl) dipropanoate] was tested. Which pIC50 did it give?
Answer: The pIC50 was greater than 6.00.

same assay, conditions: Table 1; Human Factor D 80 nM, substrate Z-L-Lys-SBzl; read-out: IC50

Question: How did the pIC50 turn out when `CC(=O)c1cn(CC(=O)N2C[C@H](F)C[C@H]2C(=O)Nc2cccc(OC(F)(F)F)c2F)c2cc(OCC3CC3)ccc12` [Cmp 4] was run?
Answer: Its pIC50 is greater than 6.00.

Question: With `CC(=O)c1cn(CC(=O)N2C[C@H](F)C[C@H]2C(=O)NCc2cccc(Cl)c2F)c2cc(OCC3CC3)ccc12` [Compound 1, (2S,4R)-1-(2-(3-acetyl-6-(cyclopropylmethoxy)-1H-indol-1-yl)acetyl)-N-(3-chloro-2-fluorobenzyl)-4-fluoropyrrolidine-2-carboxamide] as the compound, how does the pIC50 read?
Answer: Its pIC50 is greater than 6.00.

Question: How did the pIC50 turn out when `CC(=O)c1cn(CC(=O)N2C[C@H](F)C[C@H]2C(=O)NCc2cccc(Cl)c2F)c2cc(OS(=O)(=O)C(F)(F)F)ccc12` [Compound 2, 3-acetyl-1-(2-((2S,4R)-2-(3-chloro-2-fluorobenzylcarbamoyl)-4-fluoropyrrolidin-1-yl)-2-oxoethyl)-1H-indol-6-yl trifluoromethanesulfonate] was run?
Answer: The pIC50 was greater than 6.00.

Question: How did the pIC50 turn out when `CC(=O)c1cn(CC(=O)N2[C@@H]3C[C@@H]3C[C@H]2C(=O)NCc2cccc(Cl)c2F)c2cc(OCC3CC3)ccc12` [Compound 3, (1R,3S,5R)-2-(2-(3-acetyl-6-(cyclopropylmethoxy)-1H-indol-1-yl)acetyl)-N-(3-chloro-2-fluorobenzyl)-2-azabicyclo[3.1.0]hexane-3-carboxamide] was run?
Answer: The pIC50 was greater than 6.00.

Question: How did the pIC50 turn out when `CCOP(=O)(COc1ccc2c(C(C)=O)cn(CC(=O)N3C[C@H](F)C[C@H]3C(=O)NCc3cccc(Cl)c3F)c2c1)OCC` [Compound 7, Diethyl(((3-acetyl-1-(2-((2S,4R)-2-((3-chloro-2-fluorobenzyl)carbamoyl)-4-fluoropyrrolidin-1-yl)-2-oxoethyl)-1H-indol-6-yl)oxy)methyl)phosphonate] was run?
Answer: Its pIC50 is greater than 6.00.

Question: `CC(=O)c1cn(CC(=O)N2C[C@H](F)C[C@H]2C(=O)NCc2cccc(Cl)c2F)c2cc(OCP(=O)(O)O)ccc12` [Compound 8, (((3-Acetyl-1-(2-((2S,4R)-2-((3-chloro-2-fluorobenzyl)carbamoyl)-4-fluoropyrrolidin-1-yl)-2-oxoethyl)-1H-indol-6-yl)oxy)methyl)phosphonic acid] was tested. Which pIC50 did it give?
Answer: The pIC50 was greater than 6.00.

Question: `CC(=O)c1cn(CC(=O)N2C[C@H](F)C[C@H]2C(=O)NCc2cccc(Cl)c2F)c2ccc(OS(=O)(=O)C(F)(F)F)cc12` [Compound 9, 3-acetyl-1-(2-((2S,4R)-2-(3-chloro-2-fluorobenzylcarbamoyl)-4-fluoropyrrolidin-1-yl)-2-oxoethyl)-1H-indol-5-yl trifluoromethanesulfonate] was tested. Which pIC50 did it give?
Answer: The pIC50 was greater than 6.00.

Question: With `CCOP(=O)(COc1ccc2c(c1)c(C(C)=O)cn2CC(=O)N1C[C@H](F)C[C@H]1C(=O)NCc1cccc(Cl)c1F)OCC` [Compound 10, Diethyl(((3-acetyl-1-(2-((2S,4R)-2-((3-chloro-2-fluorobenzyl)carbamoyl)-4-fluoropyrrolidin-1-yl)-2-oxoethyl)-1H-indol-5-yl)oxy)methyl)phosphonate] as the compound, how does the pIC50 read?
Answer: Its pIC50 is greater than 6.00.

Question: `CC(=O)c1cn(CC(=O)N2C[C@H](F)C[C@H]2C(=O)NCc2cccc(Cl)c2F)c2ccc(OCP(=O)(O)O)cc12` [Compound 11, (((3-acetyl-1-(2-((2S,4R)-2-((3-chloro-2-fluorobenzyl)carbamoyl)-4-fluoropyrrolidin-1-yl)-2-oxoethyl)-1H-indol-5-yl)oxy)methyl)phosphonic acid] was tested. Which pIC50 did it give?
Answer: Its pIC50 is greater than 6.00.

Question: How did the pIC50 turn out when `CC(=O)c1cn(CC(=O)N2C[C@H](F)C[C@H]2C(=O)NCc2cccc(Cl)c2F)c2cc(OCP(=O)(OCOC(=O)OC(C)C)OCOC(=O)OC(C)C)ccc12` [Compound 12, (((3-acetyl-1-(2-((2S,4R)-2-(3-chloro-2-fluorobenzylcarbamoyl)-4-fluoropyrrolidin-1-yl)-2-oxoethyl)-1H-indol-6-yloxy)methyl)phosphoryl)bis(oxy)bis(methylene) isopropyl dicarbonate] was run?
Answer: The pIC50 was greater than 6.00.

Question: With `CCOP(=O)(CC)COc1ccc2c(C(C)=O)cn(CC(=O)N3C[C@H](F)C[C@H]3C(=O)NCc3cccc(Cl)c3F)c2c1` (stereo partly drawn) [Compound 14, Ethyl (((3-acetyl-1-(2-((2S,4R)-2-((3-chloro-2-fluorobenzyl)carbamoyl)-4-fluoropyrrolidin-1-yl)-2-oxoethyl)-1H-indol-6-yl)oxy)methyl)(ethyl)phosphinate] as the compound, how does the pIC50 read?
Answer: Its pIC50 is greater than 6.00.

Question: How did the pIC50 turn out when `CC(=O)c1cn(CC(=O)N2C[C@H](F)C[C@H]2C(=O)NCc2cccc(Cl)c2F)c2cc(OCS(N)(=O)=O)ccc12` [Compound 17, (2S,4R)-1-(2-(3-acetyl-6-(sulfamoylmethoxy)-1H-indol-1-yl)acetyl)-N-(3-chloro-2-fluorobenzyl)-4-fluoropyrrolidine-2-carboxamide] was run?
Answer: The pIC50 was greater than 6.00.

Question: How did the pIC50 turn out when `CCOP(=O)(COc1ccc2c(C(C)=O)cn(CC(=O)N3C[C@H](F)C[C@H]3C(=O)N[C@H](C)c3cccc(Cl)c3F)c2c1)OCC` [Compound 18, diethyl (3-acetyl-1-(2-((2S,4R)-2-((R)-1-(3-chloro-2-fluorophenyl)ethylcarbamoyl)-4-fluoropyrrolidin-1-yl)-2-oxoethyl)-1H-indol-6-yloxy)methylphosphonate] was run?
Answer: Its pIC50 is greater than 6.00.

Question: `CC(=O)c1cn(CC(=O)N2C[C@H](F)C[C@H]2C(=O)N[C@H](C)c2cccc(Cl)c2F)c2cc(OCP(=O)(O)O)ccc12` [Compound 19, (3-acetyl-1-(2-((2S,4R)-2-((R)-1-(3-chloro-2-fluorophenyl)ethylcarbamoyl)-4-fluoropyrrolidin-1-yl)-2-oxoethyl)-1H-indol-6-yloxy)methylphosphonic acid] was tested. Which pIC50 did it give?
Answer: Its pIC50 is greater than 6.00.

Question: With `CCCCCCCCCCCCCCCCOCCCOP(=O)(O)COc1ccc2c(C(C)=O)cn(CC(=O)N3C[C@H](F)C[C@H]3C(=O)NCc3cccc(Cl)c3F)c2c1` [Compound 20, 3-(hexadecyloxy)propyl hydrogen (3-acetyl-1-(2-((2S,4R)-2-(3-chloro-2-fluorobenzylcarbamoyl)-4-fluoropyrrolidin-1-yl)-2-oxoethyl)-1H-indol-6-yloxy)methylphosphonate] as the compound, how does the pIC50 read?
Answer: The pIC50 was greater than 6.00.

Question: `CC(=O)c1cn(CC(=O)N2C[C@H](F)C[C@H]2CNS(=O)(=O)c2cccc(Cl)c2F)c2cc(OCP(=O)(O)O)ccc12` [Compound 22, (3-acetyl-1-(2-((2S,4R)-2-((3-chloro-2-fluorophenylsulfonamido)methyl)-4-fluoropyrrolidin-1-yl)-2-oxoethyl)-1H-indol-6-yloxy)methylphosphonic acid] was tested. Which pIC50 did it give?
Answer: The pIC50 was greater than 6.00.

Question: With `CCC(=O)OC(OP(=O)(COc1ccc2c(C(C)=O)cn(CC(=O)N3C[C@H](F)C[C@H]3C(=O)NCc3cccc(Cl)c3F)c2c1)OC(OC(=O)CC)C(C)C)C(C)C` (stereo partly drawn) [Compound 23, 1,1′-(((3-acetyl-1-(2-((2S,4R)-2-(3-chloro-2-fluorobenzylcarbamoyl)-4-fluoropyrrolidin-1-yl)-2-oxoethyl)-1H-indol-6-yloxy)methyl)phosphoryl)bis(oxy)bis(2-methylpropane-1,1-diyl) dipropionate] as the compound, how does the pIC50 read?
Answer: The pIC50 was greater than 6.00.

Question: With `CC(=O)c1cn(CC(=O)N2C[C@H](F)C[C@H]2C(=O)Nc2ccc(OC(F)(F)F)c(F)c2)c2cc(OCP(=O)(O)O)ccc12` [Compound 25, (3-acetyl-1-(2-((2S,4R)-4-fluoro-2-(3-fluoro-4-(trifluoromethoxy)phenylcarbamoyl)pyrrolidin-1-yl)-2-oxoethyl)-1H-indol-6-yloxy)methylphosphonic acid] as the compound, how does the pIC50 read?
Answer: Its pIC50 is greater than 6.00.

same assay, conditions: Table 3; Human Factor D 80 nM, substrate Z-L-Lys-SBzl; read-out: (IC50 (Stars))

Question: With `CC(=O)c1cn(CC(=O)N2C[C@H](F)C[C@H]2C(=O)Nc2cccc(Br)n2)c2ccc(OCC[S+]([O-])CC3(C)COC3)cc12` (some centres unmarked) [Cmp 4] as the compound, how does the pIC50 read?
Answer: The pIC50 was greater than 6.00.
